Test results published in patent US8703479B2, “Technology and method to study microbial growth and adhesion to host-related surfaces and the host-microbiota interaction” (Universiteit Gent, priority 2009, dated 2014).

Experiments:
[1] = polycarbonate membrane, 200 μm-thick mucus layer, room temperature
Description: The adhesion module was built with a functional double layer separating the completely anaerobic upper chamber (95% N2-5% CO2) from the aerobic lower chamber (95% O2-5% CO2). Oxygen concentration in the upper chamber was measured by means of a Hach Lange luminescent LDO oxygen probe. Experiments were conducted at room temperature with a 200 μm-thick mucus layer using a polycarbonate or a polyamide membrane.

[2] = Adhesion of a pure bacterial culture to the mucus-covered layer of the adhesion module; details: contact time […]
Description: A first objective of working with the in vitro adhesion module is to explore the adhesion potential of pure cultures of gut microorganisms vs mixed microbial communities onto a mucus-covered layer. A culture of Lactobacillus rhamnosus GG was grown in relevant medium and inoculated in the luminal chamber of the adhesion module. The luminal chamber of a second system was inoculated with an in vitro adapted microbial community originated from the ascending colon of a Simulator of the Human Intestinal Microbial Ecosystem (SHIME) reactor. The adhesion module consisted of a luminal chamber containing the growth medium and the inoculated bacterial strain and a basal chamber from which oxygen could diffuse across a semi-permeable polycarbonate membrane, which was covered on its luminal side with a mucin layer, relevant for the specific region of the gastrointestinal tract. The contact time between the inoculated bacteria and the functional layer was established in 1.5 h. […] The obtained suspension was analyzed for microbial concentration using plate counts specific for different bacterial groups. […] Although not further analyzed at this moment, also the medium and optionally present cells of the basal chamber can be sampled and analyses can be conducted to estimate the simulated host's cellular response.

[3] = system: mucin-adhered microbiota of the SHIME; assay: Long-term prebiotic treatment in the SHIME with adhesion modules, plate counts, Adhesion Related Prebiotic Index; parameters: species or system human; details: 2.5 g/L; for Adhesion Related Prebiotic Index (AR-PI): mucin-adhered microbial community, plate counts before and after the treatment
Source text: The aim of this study was to evaluate the effect of known prebiotic compounds (inulin and arabinoxylan—AX) on the microbiota associated with the gut wall in different areas of the GI tract and under long-term representative conditions. For this purpose, the adhesion module was used together with a well-validated gastrointestinal model—the Simulator of the Human Intestinal Microbial Ecosystem (SHIME). Clearly, the inherent adhesion potency, the specific growth rate, the state of mucus layer and interaction with endogenous microorganisms (adhered or in suspension) determined the microbial potency to colonize the intestinal epithelium.
The reactor setup is adapted from the system, representing the gastrointestinal tract of the adult human, as described by Molly et al. (1993). The SHIME consists of a succession of five reactors simulating the different parts of the human gastrointestinal tract. The first two reactors are of the fill-and-draw principle to simulate different steps in food uptake and digestion, with peristaltic pumps adding a defined amount of SHIME feed (140 mL 3×/day) and pancreatic and bile liquid (60 mL 3×/day), respectively to the stomach (V1) and duodenum (V2) compartment and emptying the respective reactors after specified intervals. The last three compartments are continuously stirred reactors with constant volume and pH control. Retention time and pH of the different vessels are chosen in order to resemble in vivo conditions in the different parts of the gastrointestinal tract. The overall residence time of the last three vessels, simulating the large intestine, is 76 h. Upon inoculation with fecal microbiota, these reactors simulate the ascending (V3), transverse (V4) and descending (V5) colon. Inoculum preparation, retention time, pH, temperature settings and reactor feed composition were previously described by Possemiers et al. (2004). […]
During the basal period, the SHIME reactor is operated under nominal conditions. Parameters such as short chain fatty acid (SCFA) production and ammonium production are determined 3 times/week and plate count analyses are performed once a week for selected bacterial groups (total (an) aerobes, total Clostridia, lactobacilli, bifidobacteria, total coliforms, staphylococci). The results of these analyses serve as the background values to be used to compare the measured parameters from the treatment period. […]
During the treatment period, the SHIME reactor is operated under nominal conditions, but with a modified diet containing a lower amount of starch in the medium compared to that of the basal period and the effect of a specific compound (inulin or arabinoxylan—2.5 g/L) is tested. SCFA and ammonium production are determined 3 times/week and plate count analysis is performed once a week. […]

[4] = system: suspension of the ascending colon compartment of a SHIME system; assay: Adhesion potential of a mixed microbial community under short-term prebiotic treatment in the adhesion module; details: ascending colon SHIME suspension in luminal chamber, data not shown
Source text: A second objective of working with the in vitro adhesion module is to explore the adhesion potential of selected microbial cultures in the presence of a complex microbial community relevant for the terminal ileum and colon respectively and to evaluate the host cellular response towards this community. To this end, a suspension of the ascending colon compartment of a SHIME system was sampled and inoculated in the luminal chamber of the adhesion module in presence of inulin with a degree of polymerization between 2 and 20, and arabinoxylans (AX) with a degree of substitution of 0.7, and a strongly varying degree of polymerization (on average 200). The short-term effect of these functional foods was evaluated.

O=O [Oxygen]
relative diffusion coefficient (DO2) [1]: 9.8.10^−6 cm^2/sec

Lactobacillus rhamnosus GG
factor by which adhesion to the mucin-agar layer is higher than to mucin-free agar [2]: 6.19
percentage adhesion ([2]; mucin-agar layer, plate counts): 15.7±3.2%

arabinoxylan [AX]
effect on the luminal and mucin-associated bacteria compared to that of inulin ([3]; long-term SHIME treatment): stronger and more permanent
stimulation of the adhered lactobacilli ([3]; long-term SHIME treatment): particularly potent
Adhesion Related Prebiotic Index (AR-PI) [3]: 70
effect on adhesion capacity of the investigated bacterial groups [4]: decreased the adhesion capacity of all the investigated groups

inulin
Adhesion Related Prebiotic Index (AR-PI) [3]: 14
effect on adhesion capacity of the investigated bacterial groups [4]: less or no influence
